Assay results as given in US8592181B2, “Brazzein variant having higher sweetness and method for preparing multi-variant” (Chung-Ang University Industry-Academy Cooperation Foundation, priority 2009, dated 2013).

System: human sense of taste
Experiment: Sweetness measured by human sense of taste (20 trained subjects, minimum concentration at which sweetness is first sensed)
Format: in vivo
Conditions: for Multiples of increased sweetness to minor-type brazzein / Minimum stimulation level in which one senses sweetness for first time: primary brazzein variants; for Multiples of increased sweetness to minor-type brazzein: relative to minor-type brazzein; for Minimum stimulation level in which one senses sweetness for first time: 20 trained subjects; for Sweetness ratios of sucrose (1 g/100 ml) to primary brazzein variants (minor-type brazzein: 2000): relative to 1 g/100 ml sucrose threshold
Description: Since the recombinant brazzein according to the present invention is not a sucrose-based compound having a cyclic ring, the sweetness of the recombinant brazzein was not measured using a saccharometer. Therefore, the activity of the recombinant brazzein was measured using the human sense of taste. Sugar content measurement was performed on 20 subjects who were trained to feel substantially the same minimum concentration of sucrose in which they could sense sweetness using a sucrose solution. That is, a concentration of each brazzein variant in which the subjects could sense sweetness for the first time was measured. Also, a sweetness ratio of the sucrose solution to the wild-type brazzein was 1 g/100 ml, which was a minimum stimulation level in which the subjects could sense sweetness. Also, a sweetness ratio of the minor-type brazzein protein to the wild-type brazzein was 500 μg/100 ml, which was a minimum stimulation level in which the subjects could sense sweetness. Therefore, the sweetness was calculated using the sweetness ratios (That is, 1/0.0005=2000 for the minor-type brazzein).
Also, the brazzein multi-variants were measured for activity (sweetness) in the same manner as in Example 3-1.

Row | Substance | Multiples of increased sweetness to minor-type brazzein | Minimum stimulation level in which one senses sweetness for first time | Sweetness ratios of sucrose (1 g/100 ml) to primary brazzein variants (minor-type brazzein: 2000)
1 | K5R: primary brazzein variant: Lys at position 5 of minor-type brazzein substituted with Arg (DKCKRVYENYPVSKCQLANQCNYDCKLRKHARSGECFYDEKRNLQCICDYCEY; Brazzein(K5R)) [Brazzein K5R] | 0.05 | 10,000 μg/100 ml | 100
2 | K29A: primary brazzein variant: Lys at position 29 of minor-type brazzein substituted with Ala (DKCKKVYENYPVSKCQLANQCNYDCKLRAHARSGECFYDEKRNLQCICDYCEY; Brazzein(K29A)) [Brazzein K29A] | 0.05 | 10,000 μg/100 ml | 100
3 | K29D: primary brazzein variant: Lys at position 29 of minor-type brazzein substituted with Asp (DKCKKVYENYPVSKCQLANQCNYDCKLRDHARSGECFYDEKRNLQCICDYCEY; Brazzein(K29D)) [Brazzein K29D] | 0.05 | 10,000 μg/100 ml | 100
4 | K29E: primary brazzein variant: Lys at position 29 of minor-type brazzein substituted with Glu (DKCKKVYENYPVSKCQLANQCNYDCKLREHARSGECFYDEKRNLQCICDYCEY; Brazzein(K29E)) [Brazzein K29E] | 0.05 | 10,000 μg/100 ml | 100
5 | K29H: primary brazzein variant: Lys at position 29 of minor-type brazzein substituted with His (DKCKKVYENYPVSKCQLANQCNYDCKLRHHARSGECFYDEKRNLQCICDYCEY; Brazzein(K29H)) [Brazzein K29H] | 0.05 | 10,000 μg/100 ml | 100
6 | K29R: primary brazzein variant: Lys at position 29 of minor-type brazzein substituted with Arg (DKCKKVYENYPVSKCQLANQCNYDCKLRRHARSGECFYDEKRNLQCICDYCEY; Brazzein(K29R)) [Brazzein K29R] | 0.05 | 10,000 μg/100 ml | 100
7 | R32A: primary brazzein variant: Arg at position 32 of minor-type brazzein substituted with Ala (DKCKKVYENYPVSKCQLANQCNYDCKLRKHAASGECFYDEKRNLQCICDYCEY; Brazzein(R32A)) [Brazzein R32A] | 0.08 | 6,000 μg/100 ml | 167
8 | R32D: primary brazzein variant: Arg at position 32 of minor-type brazzein substituted with Asp (DKCKKVYENYPVSKCQLANQCNYDCKLRKHADSGECFYDEKRNLQCICDYCEY; Brazzein(R32D)) [Brazzein R32D] | 0.05 | 10,000 μg/100 ml | 100
9 | R32E: primary brazzein variant: Arg at position 32 of minor-type brazzein substituted with Glu (DKCKKVYENYPVSKCQLANQCNYDCKLRKHAESGECFYDEKRNLQCICDYCEY; Brazzein(R32E)) [Brazzein R32E] | 0.05 | 10,000 μg/100 ml | 100
10 | R32H: primary brazzein variant: Arg at position 32 of minor-type brazzein substituted with His (DKCKKVYENYPVSKCQLANQCNYDCKLRKHAHSGECFYDEKRNLQCICDYCEY; Brazzein(R32H)) [Brazzein R32H] | 0.16 | 3,000 μg/100 ml | 334
11 | R32K: primary brazzein variant: Arg at position 32 of minor-type brazzein substituted with Lys (DKCKKVYENYPVSKCQLANQCNYDCKLRKHAKSGECFYDEKRNLQCICDYCEY; Brazzein(R32K)) [Brazzein R32K] | 0.16 | 3,000 μg/100 ml | 334
12 | R42A: primary brazzein variant: Arg at position 42 of minor-type brazzein substituted with Ala (DKCKKVYENYPVSKCQLANQCNYDCKLRKHARSGECFYDEKANLQCICDYCEY; Brazzein(R42A)) [Brazzein R42A] | 0.05 | 10,000 μg/100 ml | 100
13 | R42D: primary brazzein variant: Arg at position 42 of minor-type brazzein substituted with Asp (DKCKKVYENYPVSKCQLANQCNYDCKLRKHARSGECFYDEKDNLQCICDYCEY; Brazzein(R42D)) [Brazzein R42D] | 0.05 | 10,000 μg/100 ml | 100
14 | R42E: primary brazzein variant: Arg at position 42 of minor-type brazzein substituted with Glu (DKCKKVYENYPVSKCQLANQCNYDCKLRKHARSGECFYDEKENLQCICDYCEY; Brazzein(R42E)) [Brazzein R42E] | 0.05 | 10,000 μg/100 ml | 100
15 | R42H: primary brazzein variant: Arg at position 42 of minor-type brazzein substituted with His (DKCKKVYENYPVSKCQLANQCNYDCKLRKHARSGECFYDEKHNLQCICDYCEY; Brazzein(R42H)) [Brazzein R42H] | 0.16 | 3,000 μg/100 ml | 334
16 | R42K: primary brazzein variant: Arg at position 42 of minor-type brazzein substituted with Lys (DKCKKVYENYPVSKCQLANQCNYDCKLRKHARSGECFYDEKKNLQCICDYCEY; Brazzein(R42K)) [Brazzein R42K] | 0.16 | 3,000 μg/100 ml | 334
